From PubChem BioAssay (NCI)
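1) Cells in 96-well plates. 2) Compound, 48 h, 5 concentrations. 3) Linear interpolation between surrounding doses. 4) Unreached endpoint = highest concentration. GI50 = concentration required for 50% inhibition of growth. Definition used: TGI = concentration required for complete inhibition of growth.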

What was measured:
Test in all cases: NCI-60 cell line screen, 48 h
[1] = system: NCI/ADR-RES ovarian
[2] = system: SK-MEL-5 melanoma
[3] = system: UACC-62 melanoma
[4] = system: RXF 393 renal
[5] = system: NCI-H522 lung
[6] = system: HS 578T breast
[7] = system: IGROV1 ovarian
[8] = system: A549 NSCLC
[9] = system: SK-MEL-2 melanoma
[10] = system: MCF7 breast
[11] = system: HCC-2998 colon
[12] = system: CAKI-1 renal
[13] = system: RPMI-8226 leukemia
[14] = system: DU-145 prostate
[15] = system: SN12C renal
[16] = system: TK-10 renal
[17] = system: MDA-N
[18] = system: EKVX NSCLC
[19] = system: KM12 colon
[20] = system: T-47D breast
[21] = system: SF-295 CNS
[22] = system: PC-3 prostate
[23] = system: ACHN renal
[24] = system: HL-60(TB) leukemia
[25] = system: HOP-62 NSCLC
[26] = system: HCT-116 colon
[27] = system: UACC-257 melanoma
[28] = system: MALME-3M melanoma
[29] = system: SF-539 CNS
[30] = system: 786-0 renal
[31] = system: HCT-15 colon
[32] = system: UO-31 renal
[33] = system: MDA-MB-435
[34] = system: OVCAR-8 ovarian
[35] = system: MDA-MB-231 breast
[36] = system: M14 melanoma
[37] = system: OVCAR-3 ovarian
[38] = system: SNB-19 CNS
[39] = system: A498 renal
[40] = system: SK-OV-3 ovarian
[41] = system: OVCAR-4 ovarian
[42] = system: U251 CNS
[43] = system: LOX IMVI melanoma
[44] = system: NCI-H460 lung
[45] = system: SF-268 CNS
[46] = system: CCRF-CEM leukemia
[47] = system: K-562 leukemia
[48] = system: COLO 205 colon
[49] = system: NCI-H226 lung
[50] = system: NCI-H23 lung
[51] = system: SK-MEL-28 melanoma
[52] = system: HT29 colon
[53] = system: SW-620 colon
[54] = system: OVCAR-5 ovarian
[55] = system: SR leukemia
[56] = system: HOP-92 NSCLC
[57] = system: BT-549 breast
[58] = system: SNB-75 CNS
[59] = system: MOLT-4 leukemia

CCOC(=O)Cc1cc(=O)[nH]c(-n2[nH]c(C)c(CCO)c2=O)n1
TGI [1]: > 100 µM | TGI [2]: > 100 µM | TGI [3]: > 100 µM | TGI [4]: > 100 µM | TGI [5]: > 100 µM | TGI [6]: > 100 µM | TGI [7]: > 100 µM | TGI [8]: > 100 µM | TGI [9]: > 100 µM | TGI [10]: > 100 µM | TGI [11]: > 100 µM | TGI [12]: > 100 µM | TGI [13]: > 100 µM | TGI [14]: > 100 µM | TGI [15]: > 100 µM | TGI [16]: > 100 µM | TGI [17]: > 100 µM | TGI [18]: > 100 µM | TGI [19]: > 100 µM | TGI [20]: > 100 µM | TGI [21]: > 100 µM | TGI [22]: > 100 µM | TGI [23]: > 100 µM | TGI [24]: > 100 µM | TGI [25]: > 100 µM | TGI [26]: > 100 µM | TGI [27]: > 100 µM | TGI [28]: > 100 µM | TGI [29]: > 100 µM | TGI [30]: > 100 µM | TGI [31]: > 100 µM | TGI [32]: > 100 µM | TGI [33]: > 100 µM | TGI [34]: > 100 µM | TGI [35]: > 100 µM | TGI [36]: > 100 µM | TGI [37]: > 100 µM | TGI [38]: > 100 µM | TGI [39]: > 100 µM | TGI [40]: > 100 µM | TGI [41]: > 100 µM | TGI [42]: > 100 µM | TGI [43]: > 100 µM | TGI [44]: > 100 µM | TGI [45]: > 100 µM | TGI [46]: > 100 µM | TGI [47]: > 100 µM | TGI [48]: > 100 µM | TGI [49]: > 100 µM | TGI [50]: > 100 µM | TGI [51]: > 100 µM | TGI [52]: > 100 µM | TGI [53]: > 100 µM | TGI [54]: > 100 µM

C[C@@H]1Cc2c(ccc3[nH]ncc23)[C@@H](c2ccc(NC3CN(CCCF)C3)cn2)N1CC(F)(F)F
GI50 [1]: 32.3 µM | TGI [1]: > 100 µM | GI50 [2]: 14.3 µM | TGI [2]: 28.2 µM | GI50 [3]: 15.2 µM | TGI [3]: 30.5 µM | GI50 [4]: 6.8 µM | TGI [4]: 22.9 µM | GI50 [5]: 20.2 µM | TGI [5]: 45.7 µM | GI50 [6]: 15 µM | TGI [6]: 41 µM | GI50 [7]: 20.2 µM | TGI [7]: 62.4 µM | GI50 [8]: 30.8 µM | TGI [8]: > 100 µM | GI50 [55]: 16.8 µM | TGI [55]: 53.1 µM | GI50 [9]: 19 µM | TGI [9]: 42.9 µM | GI50 [10]: < 0.01 µM | TGI [10]: 16.1 µM | GI50 [56]: 3.1 µM | TGI [56]: 20.1 µM | GI50 [57]: 16 µM | TGI [57]: 37.2 µM | GI50 [11]: 17.2 µM | TGI [11]: 33.5 µM | GI50 [12]: 15.9 µM | TGI [12]: 37.1 µM | GI50 [13]: 18.6 µM | TGI [13]: 47.4 µM | GI50 [14]: 35.2 µM | TGI [14]: > 100 µM | GI50 [15]: 24 µM | TGI [15]: 79 µM | GI50 [58]: 12.7 µM | TGI [58]: > 100 µM | GI50 [16]: 17.9 µM | TGI [16]: 44.7 µM | GI50 [18]: 28.9 µM | TGI [18]: > 100 µM | GI50 [19]: 31.3 µM | TGI [19]: > 100 µM | GI50 [20]: < 0.01 µM | TGI [20]: 23.2 µM | GI50 [59]: 19.6 µM | TGI [59]: > 100 µM | GI50 [21]: 18 µM | TGI [21]: 36.9 µM | GI50 [22]: 15.6 µM | TGI [22]: 47.8 µM | GI50 [23]: 22.2 µM | TGI [23]: 53 µM | GI50 [24]: 15.7 µM | TGI [24]: 43.4 µM | GI50 [25]: 15.3 µM | TGI [25]: 34.8 µM | GI50 [26]: 14.5 µM | TGI [26]: 28.2 µM | GI50 [27]: 17.9 µM | TGI [27]: 38.3 µM | GI50 [28]: 12.4 µM | TGI [28]: 26.6 µM | GI50 [29]: 16.9 µM | TGI [29]: 32.5 µM | GI50 [30]: 14.4 µM | TGI [30]: 28.4 µM | GI50 [31]: 16.7 µM | TGI [31]: 35 µM | GI50 [32]: 12.6 µM | TGI [32]: 26.8 µM | GI50 [33]: 17.2 µM | TGI [33]: 34.8 µM | GI50 [34]: 23.5 µM | TGI [34]: 69.8 µM | GI50 [35]: 17 µM | TGI [35]: 34.5 µM | GI50 [36]: 16.5 µM | TGI [36]: 32.2 µM | GI50 [37]: 20.3 µM | TGI [37]: 57.8 µM | GI50 [38]: 28.3 µM | TGI [38]: > 100 µM | GI50 [39]: 15.6 µM | TGI [39]: 36.6 µM | GI50 [40]: 14.3 µM | TGI [40]: 37.1 µM | GI50 [41]: 32.9 µM | TGI [41]: > 100 µM | GI50 [42]: 15.8 µM | TGI [42]: 36.7 µM | GI50 [43]: 16.1 µM | TGI [43]: 31.4 µM | GI50 [44]: 18.8 µM | TGI [44]: 37.8 µM | GI50 [45]: 22.3 µM | TGI [45]: 79.4 µM | GI50 [46]: 21.1 µM | TGI [46]: 67.3 µM | GI50 [47]: 19.4 µM | TGI [47]: 54.9 µM | GI50 [48]: 16.5 µM | TGI [48]: 35.5 µM | GI50 [49]: 39 µM | TGI [49]: > 100 µM | GI50 [51]: 16.5 µM | TGI [51]: 32.1 µM | GI50 [52]: 13.7 µM | TGI [52]: 43.2 µM | GI50 [53]: 17.5 µM | TGI [53]: 34.3 µM | GI50 [54]: 26.4 µM | TGI [54]: > 100 µM

CC(C)c1cc(C(C)C)c(B(c2ccccc2)c2ccccc2)c(C(C)C)c1B(c1ccccc1)c1ccccc1
TGI [1]: > 100 µM | TGI [2]: > 100 µM | TGI [3]: > 100 µM | TGI [5]: > 100 µM | TGI [6]: > 100 µM | TGI [7]: > 100 µM | TGI [8]: > 100 µM | TGI [55]: > 100 µM | TGI [9]: > 100 µM | TGI [56]: > 100 µM | TGI [14]: > 100 µM | TGI [15]: > 100 µM | TGI [58]: > 100 µM | TGI [17]: > 100 µM | TGI [18]: > 100 µM | TGI [20]: > 100 µM | TGI [59]: > 100 µM | TGI [21]: > 100 µM | TGI [22]: > 100 µM | TGI [23]: > 100 µM | TGI [25]: > 100 µM | TGI [26]: > 100 µM | TGI [27]: > 100 µM | TGI [28]: > 100 µM | TGI [31]: > 100 µM | TGI [34]: > 100 µM | TGI [35]: > 100 µM | TGI [36]: > 100 µM | TGI [37]: > 100 µM | TGI [40]: > 100 µM | TGI [41]: > 100 µM | TGI [43]: > 100 µM | TGI [44]: > 100 µM | TGI [45]: > 100 µM | TGI [48]: > 100 µM | TGI [52]: > 100 µM | TGI [53]: > 100 µM
